Laboratory results from paper PMC5361735, “Characterization and mechanisms of anti-influenza virus metabolites isolated from the Vietnamese medicinal plant Polygonum chinense” (BMC Complementary and Alternative Medicine, 2017).
≈ marks a conversion by molar mass, not a printed value.

tested on: MDCK cells; experiment: Cell viability (MTT) of mock-infected MDCK cells; conditions: 300 μg/mL

Row | Structure (SMILES) | cytotoxicity to MDCK cells at the highest concentration
1 | O=c1c(O)c(-c2ccc(O)c(O)c2)oc2cc(O)cc(O)c12 [PC1, Quercetin] | without cytotoxicity
2 | O=C(O)/C=C/c1ccc(O)c(O)c1 [PC8, Caffeic acid] | without cytotoxicity

tested on: not listed separately; experiment: Cell viability (MTT) of mock-infected MDCK cells; conditions: dog, mock-infected MDCK cells

Row | Structure (SMILES) | CC50 at 3 days
3 | O=c1c(O)c(-c2ccc(O)c(O)c2)oc2cc(O)cc(O)c12 [PC1, Quercetin] | > 300 µg/mL
4 | O=c1oc2c(O)c(O)cc3c(=O)oc4c(O)c(O)cc1c4c23 [PC5, Ellagic acid] | > 300 µg/mL
5 | O=C(O)/C=C/c1ccc(O)c(O)c1 [PC8, Caffeic acid] | > 300 µg/mL

tested on: MDCK cells; experiment: not given; conditions: dog, 3 days, 300 μg/mL

Row | Structure (SMILES) | reduction of cell viability
6 | COC(=O)c1cc(O)c(O)c(O)c1 [PC7, Methyl gallate] | 49%

tested on: influenza viruses PR8, HK and Lee; experiment: CPE inhibition assay, results stated over all strains; format: cell-based, influenza A and B viruses; conditions: not given

Row | Structure (SMILES) | anti-influenza activity in words
7 | NC(=O)c1ncn([C@@H]2O[C@H](CO)[C@@H](O)[C@H]2O)n1 [RBV, ribavirin, reference compound] | efficiently inhibited the replication of all viral strains tested

same assay, conditions: CPE inhibition assay, PR8, HK and Lee

Row | Structure (SMILES) | anti-influenza activity in words
8 | CCC(CC)O[C@@H]1C=C(C(=O)O)C[C@H](N)[C@H]1NC(C)=O [OSV-C, oseltamivir carboxylate, reference compound] | efficiently inhibited the replication of all viral strains tested
9 | CC[C@H](CC[C@@H](C)[C@H]1CC[C@H]2[C@@H]3CC=C4C[C@@H](O)CC[C@]4(C)[C@H]3CC[C@]12C)C(C)C [PC6, β-Sitosterol] | marginal or no anti-influenza activity

same assay, conditions: Influenza A virus, PR8; CPE inhibition assay, range over the strains (and compounds named)

Row | Structure (SMILES) | EC50
10 | O=c1oc2c(O)c(O)cc3c(=O)oc4c(O)c(O)cc1c4c23 [PC5, Ellagic acid] | 14.7 to 81.1 µg/mL (≈ 48.6 to 268 µM)
11 | COC(=O)c1cc(O)c(O)c(O)c1 [PC7, Methyl gallate] | 14.7 to 81.1 µg/mL (≈ 79.8 to 440 µM)
12 | O=C(O)/C=C/c1ccc(O)c(O)c1 [PC8, Caffeic acid] | 14.7 to 81.1 µg/mL (≈ 81.6 to 450 µM)

tested on: influenza viruses PR8, HK and Lee; experiment: not given; conditions: MDCK cells, concentrations higher than 33 μg/mL

Row | Structure (SMILES) | cytotoxicity seen as faint crystal violet background
13 | COC(=O)c1cc(O)c(O)c(O)c1 [PC7, Methyl gallate] | marginal cytotoxicity

same assay, conditions: MOI 0.001, 3 days, crystal violet

Row | Structure (SMILES) | inhibition of plaque formation
14 | O=c1oc2c(O)c(O)cc3c(=O)oc4c(O)c(O)cc1c4c23 [PC5, Ellagic acid] | inhibited plaque formation of influenza A and B viruses in a dose-dependent manner
15 | COC(=O)c1cc(O)c(O)c(O)c1 [PC7, Methyl gallate] | inhibited plaque formation of influenza A and B viruses in a dose-dependent manner
16 | O=C(O)/C=C/c1ccc(O)c(O)c1 [PC8, Caffeic acid] | inhibited plaque formation of influenza A and B viruses in a dose-dependent manner

tested on: A/Puerto Rico/8/34 (H1N1, PR8); experiment: not given; conditions: Table 2

Row | Structure (SMILES) | S.I. (CC50/EC50) PR8
17 | O=c1oc2c(O)c(O)cc3c(=O)oc4c(O)c(O)cc1c4c23 [PC5, Ellagic acid] | > 3.7
18 | CC[C@H](CC[C@@H](C)[C@H]1CC[C@H]2[C@@H]3CC=C4C[C@@H](O)CC[C@]4(C)[C@H]3CC[C@]12C)C(C)C [PC6, β-Sitosterol] | 1.1
19 | COC(=O)c1cc(O)c(O)c(O)c1 [PC7, Methyl gallate] | > 16.6
20 | O=C(O)/C=C/c1ccc(O)c(O)c1 [PC8, Caffeic acid] | > 7.9

tested on: not listed separately; experiment: in vitro; conditions: dog

Row | Structure (SMILES) | CC50 at 3 days | CC50
21 | CCC(CC)O[C@@H]1C=C(C(=O)O)C[C@H](N)[C@H]1NC(C)=O [OSV-C, oseltamivir carboxylate, reference compound] | > 100 µM | 
22 | COC(=O)c1ccc(O)c(O)c1 [PC2, Protocatechuic acid methyl ester] | 24.1 µg/mL | 
23 | O=C(O)c1cc(O)c(O)c(O)c1 [PC3, Gallic acid] |  | 111 µg/mL (≈ 653 µM)
24 | CC[C@H](CC[C@@H](C)[C@H]1CC[C@H]2[C@@H]3CC=C4C[C@@H](O)CC[C@]4(C)[C@H]3CC[C@]12C)C(C)C [PC6, β-Sitosterol] |  | 300 µg/mL (≈ 723 µM)
25 | COC(=O)c1cc(O)c(O)c(O)c1 [PC7, Methyl gallate] | > 300 µg/mL | 

tested on: PR8; experiment: Time-of-addition plaque assay; format: cell-based, influenza A virus; conditions: not given

Row | Structure (SMILES) | effect on plaques, co-treatment | effect on plaques, post-treatment | effect on plaques, pre-treatment | plaque reduction, co-treatment | reduction of viral infectivity, post-treatment
26 | O=c1oc2c(O)c(O)cc3c(=O)oc4c(O)c(O)cc1c4c23 [PC5, Ellagic acid] | plaque reduction was more distinct | reduced viral plaque titers | reduced viral plaque titers |  | 
27 | COC(=O)c1cc(O)c(O)c(O)c1 [PC7, Methyl gallate] |  |  | no inhibition | about 35% | 15%
28 | O=C(O)/C=C/c1ccc(O)c(O)c1 [PC8, Caffeic acid] | barely showed the efficacy at the maximum concentration | no significant antiviral activity | no significant antiviral activity |  | 

tested on: A/Hong Kong/8/68 (H3N2, HK); experiment: microbe, parasite or virus in culture; conditions: Influenza A virus, H3N2, MDCK, 72 h, read-out: EC50 HK

Row | Structure (SMILES) | EC50
29 | CCC(CC)O[C@@H]1C=C(C(=O)O)C[C@H](N)[C@H]1NC(C)=O [OSV-C, oseltamivir carboxylate, reference compound] | 0.005 µM
30 | O=c1c(O)c(-c2ccc(O)c(O)c2)oc2cc(O)cc(O)c12 [PC1, Quercetin] | 13.1 µg/mL
31 | COC(=O)c1ccc(O)c(O)c1 [PC2, Protocatechuic acid methyl ester] | > 24.1 µg/mL
32 | O=C(O)c1cc(O)c(O)c(O)c1 [PC3, Gallic acid] | 17.5 µg/mL
33 | O=c1oc2c(O)c(O)cc3c(=O)oc4c(O)c(O)cc1c4c23 [PC5, Ellagic acid] | 62.4 µg/mL
34 | CC[C@H](CC[C@@H](C)[C@H]1CC[C@H]2[C@@H]3CC=C4C[C@@H](O)CC[C@]4(C)[C@H]3CC[C@]12C)C(C)C [PC6, β-Sitosterol] | 300 µg/mL
35 | COC(=O)c1cc(O)c(O)c(O)c1 [PC7, Methyl gallate] | 17.1 µg/mL
36 | O=C(O)/C=C/c1ccc(O)c(O)c1 [PC8, Caffeic acid] | 32.1 µg/mL
37 | NC(=O)c1ncn([C@@H]2O[C@H](CO)[C@@H](O)[C@H]2O)n1 [RBV, ribavirin, reference compound] | 20.5 µM

tested on: A/Puerto Rico/8/34 (H1N1, PR8); experiment: microbe, parasite or virus in culture; conditions: Influenza A virus, MDCK, 72 h, read-out: EC50 PR8

Row | Structure (SMILES) | EC50
38 | O=c1c(O)c(-c2ccc(O)c(O)c2)oc2cc(O)cc(O)c12 [PC1, Quercetin] | 12.6 µg/mL (≈ 41.7 µM)
39 | COC(=O)c1ccc(O)c(O)c1 [PC2, Protocatechuic acid methyl ester] | > 24.1 µg/mL
40 | O=c1oc2c(O)c(O)cc3c(=O)oc4c(O)c(O)cc1c4c23 [PC5, Ellagic acid] | 81.1 µg/mL (≈ 268 µM)
41 | CC[C@H](CC[C@@H](C)[C@H]1CC[C@H]2[C@@H]3CC=C4C[C@@H](O)CC[C@]4(C)[C@H]3CC[C@]12C)C(C)C [PC6, β-Sitosterol] | 282 µg/mL (≈ 679 µM)
42 | COC(=O)c1cc(O)c(O)c(O)c1 [PC7, Methyl gallate] | 18.1 µg/mL (≈ 98.3 µM)
43 | O=C(O)/C=C/c1ccc(O)c(O)c1 [PC8, Caffeic acid] | 37.8 µg/mL (≈ 210 µM)

tested on: B/Lee/40 (Lee); experiment: microbe, parasite or virus in culture; conditions: Influenza B virus, MDCK, 72 h, read-out: EC50 Lee

Row | Structure (SMILES) | EC50
44 | O=c1c(O)c(-c2ccc(O)c(O)c2)oc2cc(O)cc(O)c12 [PC1, Quercetin] | 15 µg/mL
45 | COC(=O)c1ccc(O)c(O)c1 [PC2, Protocatechuic acid methyl ester] | 11.1 µg/mL
46 | O=c1oc2c(O)c(O)cc3c(=O)oc4c(O)c(O)cc1c4c23 [PC5, Ellagic acid] | 79.2 µg/mL
47 | CC[C@H](CC[C@@H](C)[C@H]1CC[C@H]2[C@@H]3CC=C4C[C@@H](O)CC[C@]4(C)[C@H]3CC[C@]12C)C(C)C [PC6, β-Sitosterol] | > 300 µg/mL
48 | COC(=O)c1cc(O)c(O)c(O)c1 [PC7, Methyl gallate] | 19.2 µg/mL
49 | O=C(O)/C=C/c1ccc(O)c(O)c1 [PC8, Caffeic acid] | 14.7 µg/mL
50 | NC(=O)c1ncn([C@@H]2O[C@H](CO)[C@@H](O)[C@H]2O)n1 [RBV, ribavirin, reference compound] | 26.6 µM

tested on: A/Hong Kong/8/68 (H3N2, HK); experiment: not given; conditions: Table 2

Row | Structure (SMILES) | S.I. (CC50/EC50) HK
51 | O=c1c(O)c(-c2ccc(O)c(O)c2)oc2cc(O)cc(O)c12 [PC1, Quercetin] | > 22.9
52 | O=c1oc2c(O)c(O)cc3c(=O)oc4c(O)c(O)cc1c4c23 [PC5, Ellagic acid] | > 4.8
53 | CC[C@H](CC[C@@H](C)[C@H]1CC[C@H]2[C@@H]3CC=C4C[C@@H](O)CC[C@]4(C)[C@H]3CC[C@]12C)C(C)C [PC6, β-Sitosterol] | 1.0
54 | COC(=O)c1cc(O)c(O)c(O)c1 [PC7, Methyl gallate] | > 17.5
55 | O=C(O)/C=C/c1ccc(O)c(O)c1 [PC8, Caffeic acid] | > 9.4

same assay, conditions: read-out: EC50 HK

Row | Structure (SMILES) | EC50
56 | CCC(CC)O[C@@H]1C=C(C(=O)O)C[C@H](N)[C@H]1NC(C)=O [OSV-C, oseltamivir carboxylate, reference compound] | < 0.005 µM
57 | NC(=O)c1ncn([C@@H]2O[C@H](CO)[C@@H](O)[C@H]2O)n1 [RBV, ribavirin, reference compound] | 15.5 µM

tested on: B/Lee/40 (Lee); experiment: not given; conditions: Table 2

Row | Structure (SMILES) | S.I. (CC50/EC50) Lee
58 | O=c1c(O)c(-c2ccc(O)c(O)c2)oc2cc(O)cc(O)c12 [PC1, Quercetin] | > 20.0
59 | COC(=O)c1ccc(O)c(O)c1 [PC2, Protocatechuic acid methyl ester] | 2.2
60 | O=c1oc2c(O)c(O)cc3c(=O)oc4c(O)c(O)cc1c4c23 [PC5, Ellagic acid] | > 3.8
61 | COC(=O)c1cc(O)c(O)c(O)c1 [PC7, Methyl gallate] | > 15.6
62 | O=C(O)/C=C/c1ccc(O)c(O)c1 [PC8, Caffeic acid] | > 20.4

same assay, conditions: read-out: EC50 Lee

Row | Structure (SMILES) | EC50
63 | NC(=O)c1ncn([C@@H]2O[C@H](CO)[C@@H](O)[C@H]2O)n1 [RBV, ribavirin, reference compound] | 17 µM

tested on: PR8 virus (viral NP); experiment: not given; format: cell-based, influenza A virus; conditions: not given

Row | Structure (SMILES) | effect on viral NP production/localization
64 | O=c1oc2c(O)c(O)cc3c(=O)oc4c(O)c(O)cc1c4c23 [PC5, Ellagic acid] | inhibit the early steps
65 | COC(=O)c1cc(O)c(O)c(O)c1 [PC7, Methyl gallate] | inhibit the early steps
66 | O=C(O)/C=C/c1ccc(O)c(O)c1 [PC8, Caffeic acid] | did not affect NP signal intensity or its localization
